Reference: ChEMBL document CHEMBL4130574, “Discovery of novel 2,4-diarylaminopyrimidine analogues as ALK and ROS1 dual inhibitors to overcome crizotinib-resistant mutants including G1202R” (Eur J Med Chem, 2018)

Columns and labels:
[1] = tested on: KARPAS-299; assay: Antiproliferative activity against human KARPAS299 cells harboring NPM-ALK after 72 hrs by MTT assay; type: functional, cell-based; conditions: KARPAS-299, 72 h
[2] = tested on: HCC78; assay: Antiproliferative activity against human HCC78 cells harboring SLC34A2-ROS1 after 72 hrs by MTT assay; type: functional, cell-based; conditions: HCC78, 72 h
[3] = tested on: A549; assay: cells; conditions: Homo sapiens, A549, 72 h
Description: Antiproliferative activity against human A549 cells harboring EGFR after 72 hrs by MTT assay

[4] = tested on: NCI-H460; assay: cells; conditions: Homo sapiens, NCI-H460, 72 h
Description: Antiproliferative activity against human NCI-H460 cells after 72 hrs by MTT assay

[5] = tested on: NCI-H2228; assay: cells; conditions: Homo sapiens, NCI-H2228, 72 h
Description: Antiproliferative activity against human NCI-H2228 cells harboring EML4-ALK after 72 hrs by MTT assay

[6] = molecular target: Epidermal growth factor receptor (Homo sapiens, UniProt P00533)
Description: Inhibition of recombinant human N-terminal GST-tagged EGFR cytoplasmic domain (669 to 1210 residues) expressed in baculovirus expression system using peptide substrate after 1 hr by mobility shift assay

[7] = molecular target: Proto-oncogene tyrosine-protein kinase ROS (Homo sapiens, UniProt P08922); assay: Inhibition of recombinant human N-terminal GST-tagged ROS1 cytoplasmic domain (1883 to 2347 residues) expressed in baculovirus expression system using peptide substrate after 1 hr by mobility shift assay
[8] = molecular target: Hepatocyte growth factor receptor (Homo sapiens, UniProt P08581); assay: Inhibition of recombinant human N-terminal GST-tagged c-MET cytoplasmic domain (956 to 1390 residues) expressed in baculovirus expression system using peptide substrate after 1 hr by mobility shift assay
[9] = molecular target: ALK tyrosine kinase receptor (Homo sapiens, UniProt Q9UM73)
Description: Inhibition of recombinant human N-terminal GST-tagged ALK cytoplasmic domain (1058 to 1620 residues) expressed in baculovirus expression system using peptide substrate after 1 hr by mobility shift assay

Chain of Proto-oncogene tyrosine-protein kinase ROS (P08922 whole entry, the tested form may be a part): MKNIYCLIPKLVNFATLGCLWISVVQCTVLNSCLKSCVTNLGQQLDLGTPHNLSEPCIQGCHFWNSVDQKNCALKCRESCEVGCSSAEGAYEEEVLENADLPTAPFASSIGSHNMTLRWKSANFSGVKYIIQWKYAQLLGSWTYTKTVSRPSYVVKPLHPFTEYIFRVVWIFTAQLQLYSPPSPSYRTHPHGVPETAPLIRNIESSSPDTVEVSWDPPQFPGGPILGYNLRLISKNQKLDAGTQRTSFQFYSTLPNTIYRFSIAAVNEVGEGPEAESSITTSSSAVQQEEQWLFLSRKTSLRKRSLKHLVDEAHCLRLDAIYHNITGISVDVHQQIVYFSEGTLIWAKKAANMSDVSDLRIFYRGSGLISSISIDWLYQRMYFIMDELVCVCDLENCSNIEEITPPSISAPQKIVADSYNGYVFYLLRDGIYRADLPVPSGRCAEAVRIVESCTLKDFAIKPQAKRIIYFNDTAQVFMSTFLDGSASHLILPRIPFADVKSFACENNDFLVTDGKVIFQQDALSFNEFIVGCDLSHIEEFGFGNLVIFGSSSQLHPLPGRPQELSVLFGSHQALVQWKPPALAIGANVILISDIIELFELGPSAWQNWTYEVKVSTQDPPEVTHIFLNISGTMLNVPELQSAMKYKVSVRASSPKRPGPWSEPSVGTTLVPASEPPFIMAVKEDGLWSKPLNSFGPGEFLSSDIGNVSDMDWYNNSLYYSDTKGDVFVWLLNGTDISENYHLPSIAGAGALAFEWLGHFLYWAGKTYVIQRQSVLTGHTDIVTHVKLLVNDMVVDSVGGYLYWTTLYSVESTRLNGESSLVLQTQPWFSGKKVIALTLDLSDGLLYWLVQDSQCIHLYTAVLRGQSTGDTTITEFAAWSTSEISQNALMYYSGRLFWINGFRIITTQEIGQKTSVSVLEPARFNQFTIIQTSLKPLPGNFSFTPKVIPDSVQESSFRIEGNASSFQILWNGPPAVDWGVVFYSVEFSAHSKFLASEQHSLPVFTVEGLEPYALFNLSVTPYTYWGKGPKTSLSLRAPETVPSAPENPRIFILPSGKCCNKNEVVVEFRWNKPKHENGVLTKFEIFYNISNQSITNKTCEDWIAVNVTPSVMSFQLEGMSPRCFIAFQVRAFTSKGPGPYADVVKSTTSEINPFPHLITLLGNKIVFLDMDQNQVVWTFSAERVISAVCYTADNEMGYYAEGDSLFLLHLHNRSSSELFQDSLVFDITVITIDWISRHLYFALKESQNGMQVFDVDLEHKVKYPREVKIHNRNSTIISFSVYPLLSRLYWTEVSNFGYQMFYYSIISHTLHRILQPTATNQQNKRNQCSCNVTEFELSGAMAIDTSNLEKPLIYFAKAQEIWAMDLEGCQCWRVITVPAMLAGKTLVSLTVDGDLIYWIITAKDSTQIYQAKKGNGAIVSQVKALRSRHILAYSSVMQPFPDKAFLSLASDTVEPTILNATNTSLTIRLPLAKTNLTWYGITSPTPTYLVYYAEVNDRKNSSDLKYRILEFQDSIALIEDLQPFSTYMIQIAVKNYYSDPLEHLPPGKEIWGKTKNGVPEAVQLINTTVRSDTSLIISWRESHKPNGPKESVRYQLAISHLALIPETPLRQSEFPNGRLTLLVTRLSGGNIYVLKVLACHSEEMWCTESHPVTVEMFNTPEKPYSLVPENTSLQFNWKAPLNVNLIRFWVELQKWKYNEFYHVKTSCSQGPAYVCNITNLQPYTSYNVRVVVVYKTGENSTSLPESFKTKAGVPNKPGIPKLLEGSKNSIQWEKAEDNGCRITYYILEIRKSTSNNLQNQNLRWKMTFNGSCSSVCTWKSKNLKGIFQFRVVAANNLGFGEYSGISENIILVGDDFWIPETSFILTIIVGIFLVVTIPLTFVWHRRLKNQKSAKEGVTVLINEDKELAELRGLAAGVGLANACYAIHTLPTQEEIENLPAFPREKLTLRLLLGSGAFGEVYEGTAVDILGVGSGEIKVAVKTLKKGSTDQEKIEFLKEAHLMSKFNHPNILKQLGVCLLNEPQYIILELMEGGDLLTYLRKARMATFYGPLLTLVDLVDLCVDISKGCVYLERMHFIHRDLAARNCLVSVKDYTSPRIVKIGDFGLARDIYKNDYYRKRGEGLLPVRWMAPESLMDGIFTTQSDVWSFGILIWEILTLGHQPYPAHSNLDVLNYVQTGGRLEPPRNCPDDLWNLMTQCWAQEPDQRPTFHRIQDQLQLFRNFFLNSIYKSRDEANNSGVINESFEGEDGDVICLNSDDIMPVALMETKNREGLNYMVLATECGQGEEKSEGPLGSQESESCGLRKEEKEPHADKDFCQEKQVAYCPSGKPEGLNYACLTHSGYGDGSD
Chain of Hepatocyte growth factor receptor (P08581 whole entry, the tested form may be a part): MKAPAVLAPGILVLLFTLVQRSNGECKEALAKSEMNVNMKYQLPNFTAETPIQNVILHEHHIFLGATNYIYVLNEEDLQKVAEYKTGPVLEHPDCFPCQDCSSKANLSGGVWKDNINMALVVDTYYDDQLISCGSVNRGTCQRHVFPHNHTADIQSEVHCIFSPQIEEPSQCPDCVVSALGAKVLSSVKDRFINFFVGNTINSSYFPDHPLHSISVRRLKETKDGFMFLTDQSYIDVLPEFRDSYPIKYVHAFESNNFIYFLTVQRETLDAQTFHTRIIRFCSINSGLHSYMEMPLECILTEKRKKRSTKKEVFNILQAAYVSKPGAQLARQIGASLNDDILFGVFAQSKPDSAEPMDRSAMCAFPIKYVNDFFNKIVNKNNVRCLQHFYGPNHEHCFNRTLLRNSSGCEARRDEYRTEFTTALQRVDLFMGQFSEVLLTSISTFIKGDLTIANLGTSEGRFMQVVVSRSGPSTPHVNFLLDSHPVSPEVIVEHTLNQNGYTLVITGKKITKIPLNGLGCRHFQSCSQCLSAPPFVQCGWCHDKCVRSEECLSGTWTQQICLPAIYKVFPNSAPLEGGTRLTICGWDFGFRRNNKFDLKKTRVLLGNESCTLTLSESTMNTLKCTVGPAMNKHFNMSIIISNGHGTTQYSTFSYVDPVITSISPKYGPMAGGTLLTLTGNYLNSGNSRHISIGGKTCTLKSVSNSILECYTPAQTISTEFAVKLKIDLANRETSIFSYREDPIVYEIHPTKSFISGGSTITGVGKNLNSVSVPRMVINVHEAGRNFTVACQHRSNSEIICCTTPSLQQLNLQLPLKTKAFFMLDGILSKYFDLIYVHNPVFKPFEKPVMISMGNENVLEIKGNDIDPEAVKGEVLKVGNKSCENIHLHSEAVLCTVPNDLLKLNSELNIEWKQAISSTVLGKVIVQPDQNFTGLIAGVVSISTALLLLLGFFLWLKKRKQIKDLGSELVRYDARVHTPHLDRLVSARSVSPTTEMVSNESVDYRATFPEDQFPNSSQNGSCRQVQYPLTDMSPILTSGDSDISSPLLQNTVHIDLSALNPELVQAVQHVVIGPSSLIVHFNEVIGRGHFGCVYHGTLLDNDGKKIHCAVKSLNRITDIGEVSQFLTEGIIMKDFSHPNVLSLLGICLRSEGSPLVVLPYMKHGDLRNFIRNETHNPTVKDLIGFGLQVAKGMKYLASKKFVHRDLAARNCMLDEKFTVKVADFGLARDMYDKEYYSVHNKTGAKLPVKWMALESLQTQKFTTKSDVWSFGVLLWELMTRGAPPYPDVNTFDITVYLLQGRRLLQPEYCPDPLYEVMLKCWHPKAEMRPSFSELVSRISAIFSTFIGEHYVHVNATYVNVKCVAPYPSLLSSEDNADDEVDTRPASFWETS
Chain of Epidermal growth factor receptor (P00533 whole entry, the tested form may be a part): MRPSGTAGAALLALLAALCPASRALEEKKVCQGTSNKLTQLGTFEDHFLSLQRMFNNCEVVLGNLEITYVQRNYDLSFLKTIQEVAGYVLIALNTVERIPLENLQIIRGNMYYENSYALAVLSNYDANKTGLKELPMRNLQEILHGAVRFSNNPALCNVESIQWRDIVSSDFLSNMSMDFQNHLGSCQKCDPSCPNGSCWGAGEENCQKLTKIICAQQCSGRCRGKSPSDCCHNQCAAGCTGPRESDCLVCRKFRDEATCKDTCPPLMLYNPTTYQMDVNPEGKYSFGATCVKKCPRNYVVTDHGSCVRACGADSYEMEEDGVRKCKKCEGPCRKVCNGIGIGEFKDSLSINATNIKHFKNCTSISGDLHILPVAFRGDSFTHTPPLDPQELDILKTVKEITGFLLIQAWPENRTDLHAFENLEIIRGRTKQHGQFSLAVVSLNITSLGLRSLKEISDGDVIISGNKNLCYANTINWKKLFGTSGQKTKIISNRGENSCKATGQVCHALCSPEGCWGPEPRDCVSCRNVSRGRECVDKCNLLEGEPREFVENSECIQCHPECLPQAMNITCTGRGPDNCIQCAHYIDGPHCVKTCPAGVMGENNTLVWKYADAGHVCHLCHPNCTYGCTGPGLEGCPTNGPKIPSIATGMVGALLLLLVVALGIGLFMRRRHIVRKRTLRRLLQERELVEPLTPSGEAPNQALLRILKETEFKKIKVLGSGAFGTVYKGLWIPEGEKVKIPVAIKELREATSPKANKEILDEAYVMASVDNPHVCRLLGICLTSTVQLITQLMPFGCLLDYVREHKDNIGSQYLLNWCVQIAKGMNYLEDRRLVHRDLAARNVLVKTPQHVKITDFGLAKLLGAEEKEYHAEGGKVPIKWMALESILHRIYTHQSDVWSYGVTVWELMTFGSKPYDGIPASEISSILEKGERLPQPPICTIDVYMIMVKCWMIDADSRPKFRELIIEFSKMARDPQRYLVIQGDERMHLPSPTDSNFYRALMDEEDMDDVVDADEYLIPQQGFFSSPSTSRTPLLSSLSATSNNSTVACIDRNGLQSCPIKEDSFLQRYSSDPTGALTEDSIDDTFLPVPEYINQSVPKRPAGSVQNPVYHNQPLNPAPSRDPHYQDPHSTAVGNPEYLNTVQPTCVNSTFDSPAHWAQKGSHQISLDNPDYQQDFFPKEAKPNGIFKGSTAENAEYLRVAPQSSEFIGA

SMILES | IC50 [1] | IC50 [2] | IC50 [3] | IC50 [4] | IC50 [5] | IC50 [6] | IC50 [7] | IC50 [8] | IC50 [9]
COc1cc(-c2nc(CN3CCCC3)cs2)ccc1Nc1ncc(Cl)c(Nc2ccccc2S(=O)(=O)C(C)C)n1 | 140 nM | 780 nM | > 1000 nM | > 1000 nM | 340 nM |  |  |  | 
COc1cc(-n2cc(CN3CCN(S(C)(=O)=O)CC3)nn2)ccc1Nc1ncc(Cl)c(Nc2ccccc2S(=O)(=O)C(C)C)n1 | 140 nM | 520 nM | 700 nM | > 1000 nM | 290 nM |  |  |  | 
CC1CCN(Cc2csc(-c3ccc(Nc4ncc(Cl)c(Nc5ccccc5S(=O)(=O)C(C)C)n4)c(OC(C)C)c3)n2)CC1 | 240 nM | > 1000 nM | > 1000 nM | > 1000 nM | 280 nM |  |  |  | 
CC(C)Oc1cc(-c2nc(CN3CCCC3)cs2)ccc1Nc1ncc(Cl)c(Nc2ccccc2S(=O)(=O)C(C)C)n1 | 190 nM | > 1000 nM | > 1000 nM | > 1000 nM | 350 nM |  |  |  | 
COc1cc(-n2cc(CN(C)C)nn2)ccc1Nc1ncc(Cl)c(Nc2ccccc2S(=O)(=O)C(C)C)n1 | > 1000 nM | 380 nM | > 1000 nM | > 1000 nM | 480 nM |  |  |  | 
COc1cc(-n2cc(CN3CCCCC3)nn2)ccc1Nc1ncc(Cl)c(Nc2ccccc2S(=O)(=O)C(C)C)n1 | 130 nM | 180 nM | > 1000 nM | 970 nM | 200 nM |  |  |  | 
COc1cc(-n2cc(CN3C[C@@H](C)N[C@@H](C)C3)nn2)ccc1Nc1ncc(Cl)c(Nc2ccccc2S(=O)(=O)C(C)C)n1 | 37 nM | 96 nM | > 1000 nM | 880 nM | 80 nM | 865 nM | 3 nM | 731 nM | 3 nM
COc1cc(-c2nc(CN3CCCCC3)cs2)ccc1Nc1ncc(Cl)c(Nc2ccccc2S(=O)(=O)C(C)C)n1 | 100 nM | 430 nM | > 1000 nM | > 1000 nM | 180 nM |  |  |  | 
CC(C)Oc1cc(-c2nc(CN3CCC[C@H]3CO)cs2)ccc1Nc1ncc(Cl)c(Nc2ccccc2S(=O)(=O)C(C)C)n1 | 200 nM | > 1000 nM | 850 nM | > 1000 nM | 300 nM |  |  |  | 
COc1cc(-c2nc(CN3CCC[C@H]3CO)cs2)ccc1Nc1ncc(Cl)c(Nc2ccccc2S(=O)(=O)C(C)C)n1 | 160 nM | 470 nM | > 1000 nM | > 1000 nM | 230 nM |  |  |  | 
COc1cc(-n2cc(CN3CCN(C(C)=O)CC3)nn2)ccc1Nc1ncc(Cl)c(Nc2ccccc2S(=O)(=O)C(C)C)n1 | 280 nM | 350 nM | > 1000 nM | > 1000 nM | 310 nM |  |  |  | 
CCN(CC)Cc1cn(-c2ccc(Nc3ncc(Cl)c(Nc4ccccc4S(=O)(=O)C(C)C)n3)c(OC)c2)nn1 | 500 nM | > 1000 nM | > 1000 nM | > 1000 nM | > 1000 nM |  |  |  | 
CC(C)Oc1cc(-c2nc(CNCCO)cs2)ccc1Nc1ncc(Cl)c(Nc2ccccc2S(=O)(=O)C(C)C)n1 | 190 nM | > 1000 nM | > 1000 nM | > 1000 nM | 350 nM |  |  |  | 
COc1cc(-n2cc(CNO)nn2)ccc1Nc1ncc(Cl)c(Nc2ccccc2S(=O)(=O)C(C)C)n1 | 820 nM | > 1000 nM | > 1000 nM | > 1000 nM | > 1000 nM |  |  |  | 
CC(C)Oc1cc(-c2nc(CN3CCN(C)CC3)cs2)ccc1Nc1ncc(Cl)c(Nc2ccccc2S(=O)(=O)C(C)C)n1 | 28 nM | 810 nM | > 1000 nM | > 1000 nM | 99 nM | > 1000 nM | 19.3 nM | > 1000 nM | 3.4 nM
CC(C)Oc1cc(-c2nc(CNC3CC3)cs2)ccc1Nc1ncc(Cl)c(Nc2ccccc2S(=O)(=O)C(C)C)n1 | 240 nM | > 1000 nM | > 1000 nM | > 1000 nM | 370 nM |  |  |  | 

More lines, now with the values ahead:

IC50 [1] | IC50 [2] | IC50 [3] | IC50 [4] | IC50 [5] | IC50 [6] | IC50 [7] | IC50 [8] | IC50 [9] | SMILES
150 nM | 490 nM | > 1000 nM | > 1000 nM | 130 nM |  |  |  |  | COc1cc(-c2nc(CN3CCOCC3)cs2)ccc1Nc1ncc(Cl)c(Nc2ccccc2S(=O)(=O)C(C)C)n1
250 nM | 320 nM | > 1000 nM | > 1000 nM | 190 nM | > 1000 nM | 4.6 nM | 703 nM | 3.9 nM | COc1cc(-n2cc(CN3CCC(C)CC3)nn2)ccc1Nc1ncc(Cl)c(Nc2ccccc2S(=O)(=O)C(C)C)n1
22 nM | 580 nM | > 1000 nM | > 1000 nM | 89 nM | > 1000 nM | 13.4 nM | > 1000 nM | 4 nM | CC(C)Oc1cc(-c2nc(CN3CCN(CCO)CC3)cs2)ccc1Nc1ncc(Cl)c(Nc2ccccc2S(=O)(=O)C(C)C)n1
120 nM | > 1000 nM | > 1000 nM | > 1000 nM | 230 nM |  |  |  |  | CC(C)Oc1cc(-c2nc(CN3CCCCC3)cs2)ccc1Nc1ncc(Cl)c(Nc2ccccc2S(=O)(=O)C(C)C)n1
380 nM | 270 nM | > 1000 nM | > 1000 nM | 410 nM |  |  |  |  | COc1cc(-n2cc(CN3CCCC3)nn2)ccc1Nc1ncc(Cl)c(Nc2ccccc2S(=O)(=O)C(C)C)n1
190 nM | 380 nM | 800 nM | > 1000 nM | 230 nM | > 1000 nM | 8.5 nM | 967 nM | 3 nM | COc1cc(-c2nc(CN3CCC(C)CC3)cs2)ccc1Nc1ncc(Cl)c(Nc2ccccc2S(=O)(=O)C(C)C)n1
320 nM | 920 nM | > 1000 nM | 750 nM | 500 nM |  |  |  |  | CCN(CC)Cc1csc(-c2ccc(Nc3ncc(Cl)c(Nc4ccccc4S(=O)(=O)C(C)C)n3)c(OC(C)C)c2)n1
140 nM | > 1000 nM | > 1000 nM | 690 nM | 350 nM |  |  |  |  | CC(C)Oc1cc(-c2nc(CN3CCOCC3)cs2)ccc1Nc1ncc(Cl)c(Nc2ccccc2S(=O)(=O)C(C)C)n1
230 nM | 330 nM | > 1000 nM | > 1000 nM | 300 nM |  |  |  |  | COc1cc(-c2nc(CNCCO)cs2)ccc1Nc1ncc(Cl)c(Nc2ccccc2S(=O)(=O)C(C)C)n1
 |  | > 1000 nM | > 1000 nM | 99 nM |  |  |  |  | Cc1cc(Nc2ncc(Cl)c(Nc3ccccc3S(=O)(=O)C(C)C)n2)c(OC(C)C)cc1C1CCNCC1 [CERITINIB]
35 nM | 81 nM | > 1000 nM | > 1000 nM | 87 nM | 890 nM | 8 nM | > 1000 nM | 4.3 nM | COc1cc(-n2cc(CN3CCNCC3)nn2)ccc1Nc1ncc(Cl)c(Nc2ccccc2S(=O)(=O)C(C)C)n1
180 nM | 240 nM | > 1000 nM | > 1000 nM | 150 nM |  |  |  |  | COc1cc(-n2cc(CN3CCOCC3)nn2)ccc1Nc1ncc(Cl)c(Nc2ccccc2S(=O)(=O)C(C)C)n1
320 nM | 520 nM | 910 nM | > 1000 nM | 380 nM |  |  |  |  | COc1cc(-n2cc(CN3CCC[C@H]3CO)nn2)ccc1Nc1ncc(Cl)c(Nc2ccccc2S(=O)(=O)C(C)C)n1
